molecular target: T1, hFXR (Homo sapiens, UniProt Q96RI1); test: In Vitro FXR Assay (TK): hFXR/hRXR TK-ECRE-luc reporter in transfected CV-1 cells; type: cell-based; conditions: 18 hrs incubation, luminescence, compounds with maximum efficacy <25% of the Fexarmine control classified as '+'
T1 construct: expressed in transfected cells; host or cells: CV-1 cells
T1 sequence (Q96RI1 1-486): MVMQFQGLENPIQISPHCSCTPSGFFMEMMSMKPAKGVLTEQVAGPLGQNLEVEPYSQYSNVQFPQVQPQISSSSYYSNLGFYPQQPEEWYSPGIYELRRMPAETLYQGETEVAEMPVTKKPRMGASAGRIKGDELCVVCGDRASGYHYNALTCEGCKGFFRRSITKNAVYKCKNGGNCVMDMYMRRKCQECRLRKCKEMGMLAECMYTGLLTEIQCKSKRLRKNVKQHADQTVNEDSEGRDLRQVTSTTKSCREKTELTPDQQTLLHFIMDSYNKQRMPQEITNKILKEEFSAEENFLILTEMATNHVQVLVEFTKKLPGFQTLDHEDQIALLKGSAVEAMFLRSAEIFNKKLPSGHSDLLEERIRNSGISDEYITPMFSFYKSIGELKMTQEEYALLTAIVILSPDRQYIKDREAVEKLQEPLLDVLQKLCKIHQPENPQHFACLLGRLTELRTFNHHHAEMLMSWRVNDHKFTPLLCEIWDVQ
T1 sequence (P19793 1-462 partner): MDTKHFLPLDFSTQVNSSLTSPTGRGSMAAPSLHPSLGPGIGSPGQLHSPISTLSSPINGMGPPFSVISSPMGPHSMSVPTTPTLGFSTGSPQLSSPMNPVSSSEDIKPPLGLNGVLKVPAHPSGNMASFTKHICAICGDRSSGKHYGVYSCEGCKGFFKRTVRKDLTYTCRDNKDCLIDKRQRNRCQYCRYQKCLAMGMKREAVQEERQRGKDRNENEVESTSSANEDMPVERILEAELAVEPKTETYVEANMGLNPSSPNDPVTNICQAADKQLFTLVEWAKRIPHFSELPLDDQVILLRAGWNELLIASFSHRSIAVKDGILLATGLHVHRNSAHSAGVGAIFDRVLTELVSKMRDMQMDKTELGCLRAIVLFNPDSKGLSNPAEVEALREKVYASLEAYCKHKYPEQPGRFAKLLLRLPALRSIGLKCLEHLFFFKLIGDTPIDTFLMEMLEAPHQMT
Procedure: Example B-1: In Vitro FXR Assay (TK)
CV-1 cells were seeded at a density of 2,000,000 cells in a T175 flask with DMEM+10% charcoal double-stripped FBS and incubated at 37° C. in 5% CO2 for 18 h (O/N).
After 18 h of incubation, the medium in the T175 flask was changed with fresh DMEM+10% charcoal super-stripped serum. In a polypropylene tube, 2500 μL OptiMEM (Life Technologies, Cat #31985-062) was combined with expression plasmids for hFXR, hRXR, TK-ECRE-luc and pCMX-YFP. The tube was then briefly vortexed and incubated at room temperature for 5 minutes. Transfection reagent (X-tremeGENE HP from Roche, Cat #06 366 236 001) was added to the OptiMEM/plasmid mixture vortexed and incubated at room temperature for 20 minutes. Following incubation, the transfection reagent/DNA mixture complex was added to cells in the T175 flask and the cells were incubated at 37° C. in 5% CO2 for 18 h (O/N).
Compounds were serially diluted in DMSO and added to transfected CV-1 cells. The cells were then incubated for 18 hrs. The next day cells were lysed and examined for luminescence.

EC50, ≥ 1000 nM:
COc1ccc([C@H]2CC[C@H](CN(c3cccc(-c4cnc(C(=O)O)s4)c3)C(=O)[C@H]3CC[C@H](O)CC3)CC2)cc1C [Compound 7.28, 5-(3-(trans-4-Hydroxy-N-((trans-4-(4-methoxy-3-methylphenyl)cyclohexyl)methyl)cyclohexanecarboxamido)phenyl)thiazole-2-carboxylic acid]
COc1ccc([C@H]2CC[C@H](CN(c3cccc(CNc4nccs4)c3)C(=O)[C@H]3CC[C@H](O)CC3)CC2)cc1C [Compound 14, trans-4-Hydroxy-N-((trans-4-(4-methoxy-3-methylphenyl)cyclohexyl)methyl)-N-(3-((thiazol-2-ylamino)methyl)phenyl)cyclohexanecarboxamide]

EC50, 250 to 1000 nM:
CCO[C@H]1CC[C@H](C(=O)N(C[C@H]2CC[C@H](c3ccc(OC)c(C)c3)CC2)c2cccc(-c3cnc(OC)s3)c2)CC1 [Compound 4, trans-4-Ethoxy-N-((trans-4-(4-methoxy-3-methylphenyl)cyclohexyl)methyl)-N-(3-(2-methoxythiazol-5-yl)phenyl)cyclohexanecarboxamide]
Cn1ccc2cc([C@H]3CC[C@H](CN(c4cccc(-c5cnc(C6CC6)s5)c4)C(=O)[C@H]4CC[C@H](O)CC4)CC3)ncc21 [Compound 9.17, trans-N-(3-(2-Cyclopropylthiazol-5-yl)phenyl)-4-hydroyx-N-((trans-4-(1-methyl-1H-pyrrolo[2,3-c]pyridin-5-yl)cyclohexyl)methyl)cyclohexanecarboxamide]
COc1ccc([C@H]2CC[C@H](CN(c3cccc(-c4cnc(C(C)=O)s4)c3)C(=O)[C@H]3CC[C@H](O)CC3)CC2)cc1C [Compound 7.24, trans-N-(3-(2-Acetylthiazol-5-yl)phenyl)-4-hydroxy-N-((trans-4-(4-methoxy-3-methylphenyl)cyclohexyl)methyl) cyclohexanecarboxamide]

EC50, ≤ 250 nM:
COc1ccc([C@H]2CC[C@H](CN(c3cccc(-c4cnc(C5CCC5)s4)c3)C(=O)[C@H]3CC[C@H](O)CC3)CC2)cc1C [Compound 7.08, trans-N-(3-(2-Cyclobutylthiazol-5-yl)phenyl)-4-hydroxy-N-((trans-4-(4-methoxy-3-methylphenyl)cyclohexyl)methyl) cyclohexanecarboxamide]
COc1ncc(-c2cccc(N(C[C@@H]3CC[C@@H](c4ccc(OC)c(C)c4)C(C)C3)C(=O)[C@H]3CC[C@H](O)CC3)c2)s1 (stereo partly drawn) [Compound 9.12, trans-4-Hydroxy-N-((trans-4-(4-methoxy-3-methylphenyl)-3-methylcyclohexyl)methyl)-N-(3-(2-methoxythiazol-5-yl)phenyl)cyclohexanecarboxamide]
COc1ccc([C@H]2CC[C@H](CN(c3cccc(-c4cnc(C5CC5)s4)c3)C(=O)[C@H]3CC[C@H](O)CC3)CC2)cc1C#N [Compound 7.29, trans-N-((trans-4-(3-Cyano-4-methoxyphenyl)cyclohexyl)methyl)-N-(3-(2-cyclopropylthiazol-5-yl)phenyl)-4-hydroxycyclohexanecarboxamide]
CCOc1ncc(-c2cccc(N(C[C@H]3CC[C@H](c4ccc(OC)c(C)c4)CC3)C(=O)[C@H]3CC[C@H](O)CC3)c2)s1 [Compound 7.16, trans-N-(3-(2-Ethoxythiazol-5-yl)phenyl)-4-hydroxy-N-((trans-4-(4-methoxy-3-methylphenyl)cyclohexyl)methyl) cyclohexanecarboxamide]
COc1ncc(-c2cccc(N(C[C@H]3CC[C@H](c4cnc(OC)c(Cl)c4)CC3)C(=O)[C@H]3CC[C@H](O)CC3)c2)s1 [Compound 9.04, trans-N-((trans-4-(5-Chloro-6-methoxypyridin-3-yl)cyclohexyl)methyl)-4-hydroxy-N-(3-(2-methoxythiazol-5-yl)phenyl)cyclohexanecarboxamide]
COc1ncc(-c2cccc(N(C[C@H]3CC[C@H](c4ccc(OC)c(C)c4)CC3)C(=O)[C@H]3CC[C@H](OC(C)C)CC3)c2)s1 [Compound 9.34, trans-4-Isopropoxy-N-((trans-4-(4-methoxy-3-methylphenyl)cyclohexyl)methyl)-N-(3-(2-methoxythiazol-5-yl)phenyl)cyclohexanecarboxamide]
COc1ccc([C@H]2CC[C@H](CN(c3cccc(-c4cnc(C5CC5)s4)c3)C(=O)[C@H]3CC[C@H](O)CC3)CC2)cc1S(C)(=O)=O [Compound 9.26, trans-N-(3-(2-Cyclopropylthiazol-5-yl)phenyl)-4-hydroxy-N-((trans-4-(4-methoxy-3-(methylsulfonyl)phenyl)cyclohexyl)methyl) cyclohexanecarboxamide]
COc1ccc([C@H]2CC[C@H](CN(c3cccc(-c4cnc(C5CC5)s4)c3)C(=O)[C@H]3CC[C@H](O)CC3)CC2)cc1Cl [Compound 9.03, trans-N-((trans-4-(3-Chloro-4-methoxyphenyl)cyclohexyl)methyl)-N-(3-(2-cyclopropylthiazol-5-yl)phenyl)-4-hydroxycyclohexanecarboxamide]
C#Cc1cc([C@H]2CC[C@H](CN(c3cccc(-c4cnc(OC)s4)c3)C(=O)[C@H]3CC[C@H](O)CC3)CC2)ccc1OC [Compound 9.05, trans-N-((trans-4-(3-Ethynyl-4-methoxyphenyl)cyclohexyl)methyl)-4-hydroxy-N-(3-(2-methoxythiazol-5-yl)phenyl)cyclohexanecarboxamide]
COc1ncc(-c2cccc(N(C[C@H]3CC[C@H](c4ccc5c(c4)c(F)nn5C)CC3)C(=O)[C@H]3CC[C@H](O)CC3)c2)s1 [Compound 9.10, trans-N-((trans-4-(3-Fluoro-1-methyl-1H-indazol-5-yl)cyclohexyl)methyl)-4-hydroxy-N-(3-(2-methoxythiazol-5-yl)phenyl)cyclohexanecarboxamide]
COc1ncc(-c2cccc(N(CC3CCC(c4ccc(OC)c(C)c4)CC3C)C(=O)[C@H]3CC[C@H](O)CC3)c2)s1 (stereo partly drawn) [Compound 12, trans-4-Hydroxy-N-((4-(4-methoxy-3-methylphenyl)-2-methylcyclohexyl)methyl)-N-(3-(2-methoxythiazol-5-yl)phenyl)cyclohexanecarboxamide]
COc1ccc([C@H]2CC[C@H](CN(c3cccc(-c4cnc(C(F)F)s4)c3)C(=O)[C@H]3CC[C@H](O)CC3)CC2)cc1C [Compound 7.22, trans-N-(3-(2-(Difluoromethyl)thiazol-5-yl)phenyl)-4-hydroxy-N-((trans-4-(4-methoxy-3-methylphenyl)cyclohexyl)methyl) cyclohexanecarboxamide]
COc1ccc([C@H]2CC[C@H](CN(c3cccc(-c4cnc(C5CC5)s4)c3)C(=O)[C@H]3CC[C@H](O)CC3)CC2)nc1C#N [Compound 9.21, trans-N-((trans-4-(6-Cyano-5-methoxypyridin-2-yl)cyclohexyl)methyl)-N-(3-(2-cyclopropylthiazol-5-yl)phenyl)-4-hydroxycyclohexanecarboxamide]
COc1ccc([C@H]2CC[C@H](CN(c3cccc(-c4cnc(N5CCOCC5)s4)c3)C(=O)[C@H]3CC[C@H](O)CC3)CC2)cc1C [Compound 7.15, trans-4-Hydroxy-N-((trans-4-(4-methoxy-3-methylphenyl)cyclohexyl)methyl)-N-(3-(2-morpholinothiazol-5-yl)phenyl)cyclohexanecarboxamide]
COc1ncc(-c2cccc(N(C[C@@H]3CC[C@@H](c4ccc(OC)c(C)c4)CC3C)C(=O)[C@H]3CC[C@H](O)CC3)c2)s1 (stereo partly drawn) [Compound 9.11, trans-4-Hydroxy-N-((trans-4-(4-methoxy-3-methylphenyl)-2-methylcyclohexyl)methyl)-N-(3-(2-methoxythiazol-5-yl)phenyl)cyclohexanecarboxamide]
